Laboratory results: paper PMC12090182, “Repurposing of the RIPK1-Selective Benzo[1,4]oxazepin-4-one Scaffold for the Development of a Type III LIMK1/2 Inhibitor” (ACS Chemical Biology, 2025)

System: MRC-9 cells
Assay: Multiplex high-content viability assessment
Format: cell-based
Conditions: human fibroblast
Outline: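 HEK293T and U2OS cells (DMEM) and MRC-9 fibroblasts (EMEM) exposed to compounds at 1 and 10 μM. Live-cell confocal imaging of cell shape and fluorescence before and at 12, 24 and 48 h. Normalized to 0.1% DMSO; biological duplicates with SEM.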

[1] = 1 µM, 0 h after treatment, biological replicate 1
[2] = 1 µM, 0 h after treatment, biological replicate 2
[3] = 1 µM, 12 h after treatment, biological replicate 1
[4] = 1 µM, 12 h after treatment, biological replicate 2
[5] = 1 µM, 24 h after treatment, biological replicate 1
[6] = 1 µM, 24 h after treatment, biological replicate 2
[7] = 1 µM, 48 h after treatment, biological replicate 1
[8] = 1 µM, 48 h after treatment, biological replicate 2
[9] = 10 µM, 0 h after treatment, biological replicate 1
[10] = 10 µM, 0 h after treatment, biological replicate 2
[11] = 10 µM, 12 h after treatment, biological replicate 1
[12] = 10 µM, 12 h after treatment, biological replicate 2
[13] = 10 µM, 24 h after treatment, biological replicate 1
[14] = 10 µM, 24 h after treatment, biological replicate 2
[15] = 10 µM, 48 h after treatment, biological replicate 1
[16] = 10 µM, 48 h after treatment, biological replicate 2

For `CC(C)C(=O)Nc1ncc(C(=O)NCCN(Cc2ccccc2)C(=O)c2ccc(S(=O)(=O)Nc3ccccc3)cc2)s1` [TH470], the “Cell count normalized to cells treated with DMSO control” value (“Cell count normalized to cells treated” below) [1] was 0.8608, the “Cell count per well” value [1] was 129 and the “Population Fragmented Nuclei (%)” value [1] was 29.31%. For the same molecule, the “Population Healthy Nuclei (%)” value [1] was 61.21%, the “Population Pyknosed Nuclei (%)” value [1] was 9.48% and the “Population apoptotic cell (%)” value [1] was 36.36%. The “Population cell that influence microtubule strucutre (%)” value [1] was 19.72%, the “Population with increased mitochondrial mass (%)” value [1] was 8.45% and the “Population with membrane disruption (%)” value [1] was 1.41%. For the same molecule, the “Cell count normalized to cells treated” value [2] was 0.9307, the “Cell count per well” value [2] was 166 and the “Population Fragmented Nuclei (%)” value [2] was 25.00%. The “Population Healthy Nuclei (%)” value [2] was 44.23%, the “Population Pyknosed Nuclei (%)” value [2] was 30.77% and the “Population apoptotic cell (%)” value [2] was 35.42%. For the same molecule, the “Population cell that influence microtubule strucutre (%)” value [2] was 44.93%, the “Population with increased mitochondrial mass (%)” value [2] was 11.59% and the “Population with membrane disruption (%)” value [2] was 10.14%. The “Cell count normalized to cells treated” value [3] was 0.8102, the “Cell count per well” value [3] was 122 and the “Population Fragmented Nuclei (%)” value [3] was 23.93%. For the same molecule, the “Population Healthy Nuclei (%)” value [3] was 62.39%, the “Population Pyknosed Nuclei (%)” value [3] was 13.68% and the “Population apoptotic cell (%)” value [3] was 43.75%. The “Population cell that influence microtubule strucutre (%)” value [3] was 27.40%, the “Population with increased mitochondrial mass (%)” value [3] was 4.11% and the “Population with membrane disruption (%)” value [3] was 2.74%. For the same molecule, the “Cell count normalized to cells treated” value [4] was 0.8825, the “Cell count per well” value [4] was 147 and the “Population Fragmented Nuclei (%)” value [4] was 34.51%. The “Population Healthy Nuclei (%)” value [4] was 42.25%, the “Population Pyknosed Nuclei (%)” value [4] was 23.24% and the “Population apoptotic cell (%)” value [4] was 36.36%. For the same molecule, the “Population cell that influence microtubule strucutre (%)” value [4] was 73.33%, the “Population with increased mitochondrial mass (%)” value [4] was 13.33% and the “Population with membrane disruption (%)” value [4] was 15.00%. The “Cell count normalized to cells treated” value [5] was 0.8356, the “Cell count per well” value [5] was 126 and the “Population Fragmented Nuclei (%)” value [5] was 27.27%. For the same molecule, the “Population Healthy Nuclei (%)” value [5] was 57.02%, the “Population Pyknosed Nuclei (%)” value [5] was 15.70% and the “Population apoptotic cell (%)” value [5] was 63.16%. For the same molecule, the “Population cell that influence microtubule strucutre (%)” value [5] was 34.78%, the “Population with increased mitochondrial mass (%)” value [5] was 4.35% and the “Population with membrane disruption (%)” value [5] was 1.45%. For the same molecule, the “Cell count normalized to cells treated” value [6] was 0.9099, the “Cell count per well” value [6] was 150 and the “Population Fragmented Nuclei (%)” value [6] was 42.18%. The “Population Healthy Nuclei (%)” value [6] was 40.82%, the “Population Pyknosed Nuclei (%)” value [6] was 17.01% and the “Population apoptotic cell (%)” value [6] was 56.00%. The “Population cell that influence microtubule strucutre (%)” value [6] was 61.67%, the “Population with increased mitochondrial mass (%)” value [6] was 10.00% and the “Population with membrane disruption (%)” value [6] was 18.33%. The “Cell count normalized to cells treated” value [7] was 0.8239, the “Cell count per well” value [7] was 125 and the “Population Fragmented Nuclei (%)” value [7] was 33.87%. For the same molecule, the “Population Healthy Nuclei (%)” value [7] was 54.03%, the “Population Pyknosed Nuclei (%)” value [7] was 12.10% and the “Population apoptotic cell (%)” value [7] was 60.00%. For the same molecule, the “Population cell that influence microtubule strucutre (%)” value [7] was 41.79%, the “Population with increased mitochondrial mass (%)” value [7] was 4.48% and the “Population with membrane disruption (%)” value [7] was 1.49%. For the same molecule, the “Cell count normalized to cells treated” value [8] was 0.9026, the “Cell count per well” value [8] was 147 and the “Population Fragmented Nuclei (%)” value [8] was 48.98%. The “Population Healthy Nuclei (%)” value [8] was 42.18%, the “Population Pyknosed Nuclei (%)” value [8] was 8.84% and the “Population apoptotic cell (%)” value [8] was 69.23%. The “Population cell that influence microtubule strucutre (%)” value [8] was 61.29%, the “Population with increased mitochondrial mass (%)” value [8] was 16.13% and the “Population with membrane disruption (%)” value [8] was 9.68%. The “Cell count normalized to cells treated” value [9] was 1.121, the “Cell count per well” value [9] was 168 and the “Population Fragmented Nuclei (%)” value [9] was 21.21%. For the same molecule, the “Population Healthy Nuclei (%)” value [9] was 57.58%, the “Population Pyknosed Nuclei (%)” value [9] was 21.21% and the “Population apoptotic cell (%)” value [9] was 25.71%. For the same molecule, the “Population cell that influence microtubule strucutre (%)” value [9] was 17.89%, the “Population with increased mitochondrial mass (%)” value [9] was 6.32% and the “Population with membrane disruption (%)” value [9] was 1.05%. The “Cell count normalized to cells treated” value [10] was 0.8074, the “Cell count per well” value [10] was 144 and the “Population Fragmented Nuclei (%)” value [10] was 27.54%. The “Population Healthy Nuclei (%)” value [10] was 50.00%, the “Population Pyknosed Nuclei (%)” value [10] was 22.46% and the “Population apoptotic cell (%)” value [10] was 38.71%. For the same molecule, the “Population cell that influence microtubule strucutre (%)” value [10] was 49.28%, the “Population with increased mitochondrial mass (%)” value [10] was 15.94% and the “Population with membrane disruption (%)” value [10] was 2.90%. The “Cell count normalized to cells treated” value [11] was 1.202, the “Cell count per well” value [11] was 181 and the “Population Fragmented Nuclei (%)” value [11] was 19.88%. The “Population Healthy Nuclei (%)” value [11] was 54.97%, the “Population Pyknosed Nuclei (%)” value [11] was 25.15% and the “Population apoptotic cell (%)” value [11] was 39.53%. For the same molecule, the “Population cell that influence microtubule strucutre (%)” value [11] was 77.66%, the “Population with increased mitochondrial mass (%)” value [11] was 9.57% and the “Population with membrane disruption (%)” value [11] was 3.19%. For the same molecule, the “Cell count normalized to cells treated” value [12] was 0.9125, the “Cell count per well” value [12] was 152 and the “Population Fragmented Nuclei (%)” value [12] was 31.25%. For the same molecule, the “Population Healthy Nuclei (%)” value [12] was 34.03%, the “Population Pyknosed Nuclei (%)” value [12] was 34.72% and the “Population apoptotic cell (%)” value [12] was 54.00%. The “Population cell that influence microtubule strucutre (%)” value [12] was 91.84%, the “Population with increased mitochondrial mass (%)” value [12] was 14.29% and the “Population with membrane disruption (%)” value [12] was 18.37%. For the same molecule, the “Cell count normalized to cells treated” value [13] was 1.167, the “Cell count per well” value [13] was 176 and the “Population Fragmented Nuclei (%)” value [13] was 24.85%. The “Population Healthy Nuclei (%)” value [13] was 52.66%, the “Population Pyknosed Nuclei (%)” value [13] was 22.49% and the “Population apoptotic cell (%)” value [13] was 57.89%. The “Population cell that influence microtubule strucutre (%)” value [13] was 78.65%, the “Population with increased mitochondrial mass (%)” value [13] was 19.10% and the “Population with membrane disruption (%)” value [13] was 1.12%. For the same molecule, the “Cell count normalized to cells treated” value [14] was 0.825, the “Cell count per well” value [14] was 136 and the “Population Fragmented Nuclei (%)” value [14] was 34.62%. The “Population Healthy Nuclei (%)” value [14] was 32.31%, the “Population Pyknosed Nuclei (%)” value [14] was 33.08% and the “Population apoptotic cell (%)” value [14] was 44.19%. The “Population cell that influence microtubule strucutre (%)” value [14] was 88.10%, the “Population with increased mitochondrial mass (%)” value [14] was 19.05% and the “Population with membrane disruption (%)” value [14] was 16.67%. The “Cell count normalized to cells treated” value [15] was 1.081, the “Cell count per well” value [15] was 164 and the “Population Fragmented Nuclei (%)” value [15] was 23.18%. For the same molecule, the “Population Healthy Nuclei (%)” value [15] was 54.97%, the “Population Pyknosed Nuclei (%)” value [15] was 21.85% and the “Population apoptotic cell (%)” value [15] was 48.48%. The “Population cell that influence microtubule strucutre (%)” value [15] was 89.16%, the “Population with increased mitochondrial mass (%)” value [15] was 22.89% and the “Population with membrane disruption (%)” value [15] was 0.00%. The “Cell count normalized to cells treated” value [16] was 0.7798, the “Cell count per well” value [16] was 127 and the “Population Fragmented Nuclei (%)” value [16] was 44.35%. For the same molecule, the “Population Healthy Nuclei (%)” value [16] was 37.90%, the “Population Pyknosed Nuclei (%)” value [16] was 17.74% and the “Population apoptotic cell (%)” value [16] was 63.64%. For the same molecule, the “Population cell that influence microtubule strucutre (%)” value [16] was 89.36%, the “Population with increased mitochondrial mass (%)” value [16] was 17.02% and the “Population with membrane disruption (%)” value [16] was 17.02%.
